Assay [1] in a line: Hypouricemic effect (oxonic acid-induced hyperuricemic beagle dogs). Format: in vivo. Conditions: hyperuricemic beagle dog, oral, 10 mg/kg, 8 hours after administration. The method, then:
Potassium oxonate (50 mg/kg) was subcutaneously administrated before and 4 hours after compound administration. After the blood was collected from the cephalic vein at 8 hours after administration, the plasma was separated. The level of uric acid in the plasma sample was measured by LC-MS/MS method and the percentage of hypouricemic effect was determined by the following expression:
Percentage of hypouricemic effect (%)=(Level of uric acid of the control animal−Level of uric acid of the test compound-administered animal)×100/Level of uric acid of the control animal.

In assay [2] the target is XO activity (oxidase-type xanthine oxidoreductase) (Rattus norvegicus, UniProt P22985). Nature of the assay: Prolonged inhibition of tissue and plasma XO activity after oral administration (pterin-based assay). Conditions: 27 h.
Sequence of XO activity (oxidase-type xanthine oxidoreductase) (P22985 whole entry): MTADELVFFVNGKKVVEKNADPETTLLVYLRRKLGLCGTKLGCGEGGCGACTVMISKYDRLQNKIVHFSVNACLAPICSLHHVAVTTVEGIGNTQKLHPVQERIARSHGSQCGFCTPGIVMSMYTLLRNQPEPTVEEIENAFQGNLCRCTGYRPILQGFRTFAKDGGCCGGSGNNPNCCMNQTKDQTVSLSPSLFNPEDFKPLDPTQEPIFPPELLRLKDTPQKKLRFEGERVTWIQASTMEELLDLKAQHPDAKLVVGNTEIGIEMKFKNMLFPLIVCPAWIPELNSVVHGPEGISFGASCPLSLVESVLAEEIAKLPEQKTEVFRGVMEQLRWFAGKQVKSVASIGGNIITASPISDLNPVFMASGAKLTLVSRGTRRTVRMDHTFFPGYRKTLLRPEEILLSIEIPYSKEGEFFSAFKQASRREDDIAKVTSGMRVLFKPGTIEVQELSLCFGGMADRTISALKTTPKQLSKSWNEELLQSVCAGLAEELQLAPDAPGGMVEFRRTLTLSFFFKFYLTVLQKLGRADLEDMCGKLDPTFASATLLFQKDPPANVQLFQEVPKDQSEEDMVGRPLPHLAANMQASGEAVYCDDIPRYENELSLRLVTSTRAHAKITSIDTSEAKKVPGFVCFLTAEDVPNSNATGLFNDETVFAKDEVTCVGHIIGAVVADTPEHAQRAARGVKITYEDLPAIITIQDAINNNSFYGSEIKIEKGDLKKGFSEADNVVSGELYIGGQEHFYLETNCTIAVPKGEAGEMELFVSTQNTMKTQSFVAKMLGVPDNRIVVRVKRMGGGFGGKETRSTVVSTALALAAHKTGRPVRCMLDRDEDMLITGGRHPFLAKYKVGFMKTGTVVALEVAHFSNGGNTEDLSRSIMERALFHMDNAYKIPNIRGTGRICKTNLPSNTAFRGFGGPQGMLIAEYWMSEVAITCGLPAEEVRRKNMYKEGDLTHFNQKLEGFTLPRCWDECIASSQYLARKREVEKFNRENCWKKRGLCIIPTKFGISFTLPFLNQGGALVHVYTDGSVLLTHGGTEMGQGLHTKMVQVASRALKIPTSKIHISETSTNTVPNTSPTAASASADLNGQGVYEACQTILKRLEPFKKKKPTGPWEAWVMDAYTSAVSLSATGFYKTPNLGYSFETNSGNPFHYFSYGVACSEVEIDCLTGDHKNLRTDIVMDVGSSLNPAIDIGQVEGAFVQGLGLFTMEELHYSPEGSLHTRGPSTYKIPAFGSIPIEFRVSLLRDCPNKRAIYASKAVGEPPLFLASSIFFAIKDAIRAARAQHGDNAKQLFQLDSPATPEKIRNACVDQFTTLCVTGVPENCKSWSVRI
Method: The tissue includes liver, kidney, adipose tissue, intestine and vessel.
A test compound suspended in a 0.5% methylcellulose solution was administered to 7 to 9 week-old Sprague-Dawley male rats (Japan Charles River Co.) by oral gavage administration using a feeding needle. The blood was collected from the abdominal vein and tissue was collected at 24 or 27 hours after administration. Plasma sample was prepared by centrifugation.
Tissue XO activity, tissue XOR activity and plasma XO activity were measured by the pterin-based assay which utilizes the reaction that pterin is oxidized by each type of xanthine oxidoreductase to produce fluorescent isoxanthopterin. […] Then the homogenates were centrifuged 12,000 rpm for 15 min at 4° C. When measured XO activity, the supernatant of tissue and plasma were respectively co-incubated with 50 μM pterin solution at 37° C. When measured XOR activity, the supernatant of tissue homogenate was co-incubated with 50 μM pterin and 50 μM methylene blue solution at 37° C. As a control, oxidase-type xanthine oxidoreductase (from buttermilk, manufactured by Calbiochem Novabiochem Corp.) was also incubated with pterin solution in the same manner. XO activity and XOR activity of the samples were determined from fluorescence intensity which normalized by the intensity value of control and protein concentration.
The percentage of XO activity inhibition and XOR activity inhibition were determined by the following expression:
Percentage of XO or XOR activity inhibition (%)=(XO or XOR activity of the control animal−XO or XOR activity of the test compound-administered animal)×100/XO or XOR activity of the control animal.
Where [3] appears, read: read-out: % inhibition of XO activity (vs. vehicle), Kidney, 1 mg/kg, 27 hours after administration.
The mark [4] stands for this setting: read-out: % inhibition of XO activity (vs. vehicle), Kidney, 10 mg/kg, 27 hours after administration.
Where [5] appears, read: read-out: % inhibition of XO activity (vs. vehicle), Liver, 1 mg/kg, 27 hours after administration.
The mark [6] stands for this setting: read-out: % inhibition of XO activity (vs. vehicle), Liver, 10 mg/kg, 27 hours after administration.
The mark [7] stands for this setting: read-out: % inhibition of XO activity (vs. vehicle), Plasma, 1 mg/kg, 27 hours after administration.
The mark [8] stands for this setting: read-out: % inhibition of XO activity (vs. vehicle), Plasma, 10 mg/kg, 27 hours after administration.

Like-named read-outs stand apart in the source and are kept apart here.

`Cc1nc(-c2ccc(OCC(C)C)c(-n3cnnn3)c2)sc1C(=O)O` [Compound 25, 4-methyl-2-[4-(2-methylpropoxy)-3-(1H-1,2,3,4-tetrazol-1-yl)phenyl]-1,3-thiazole-5-carboxylic acid]: in assay [1], the hypouricemic effect result is reported as “showed a hypouricemic effect”.
As for `Cc1nc(-c2ccc(OCC(C)(C)C)c(-n3cnnn3)c2)sc1C(=O)O` [Compound 26, 2-[4-(2,2-dimethylpropoxy)-3-(1H-1,2,3,4-tetrazol-1-yl)phenyl]-4-methyl-1,3-thiazole-5-carboxylic acid], the inhibition in vivo at 1 mg/kg in assay [2] (setting [3]) was at least 60%; in assay [2] (setting [5]) it was at least 80%; in assay [2] (setting [7]), at least 25%. Besides, the figures for the inhibition in vivo at 10 mg/kg in assay [2] (setting [4]), in assay [2] (setting [6]) and in assay [2] (setting [8]) were at least 70%, at least 80% and at least 40%, respectively.
Regarding `Cc1nc(-c2ccc(OCC(C)C)c(-n3ccnn3)c2)sc1C(=O)O` [Compound 17, 4-methyl-2-[4-(2-methylpropoxy)-3-(1H-1,2,3-triazol-1-yl)phenyl]-1,3-thiazole-5-carboxylic acid], the figures for the inhibition in vivo at 1 mg/kg in assay [2] (setting [3]), in assay [2] (setting [5]) and in assay [2] (setting [7]) were at least 60%, at least 80% and at least 25%, respectively. The inhibition in vivo at 10 mg/kg in assay [2] (setting [4]) is at least 70%; in assay [2] (setting [6]) it was at least 80%; in assay [2] (setting [8]), at least 40%.

The values above are taken from patent US20170217948A1, “XANTHINE OXIDASE INHIBITOR” (Teijin Pharma Limited, priority 2014, published 2017).
